Experimental data published in patent US8138205B2, “Heteroarylalkoxy-substituted quinolone inhibitors of PDE4” (Kalypsys, Inc., priority 2006, dated 2012).

Legend:
PDE4B = target: T1, PDE4B (Homo sapiens, UniProt Q07343); assay: PDE/AK Biological Activity Assay (coupled PDE/adenylate kinase bioluminescent assay); format: biochemical; conditions: catalytic domain of PDE4B, read-out: PDE4 Enzyme IC50
T1 construct: hex-histidine (His6) (N); made in house
Description: Phosphodiesterases regulate the activity of the second messenger cyclic adenosine monophosphate (cAMP) by hydrolyzing cAMP to adenosine monophosphate (AMP). We developed a coupled PDE/AK bioluminescent high-throughput assay to measure the activity of phosphodiesterases. In the PDE/AK assay, the AMP produced from the hydrolysis of cAMP by phosphodiesterase is converted to adenosine diphosphate (ADP) by the phosphotransferase activity of adenylate kinase (also known as ADK or myokinase). Adenylate kinase will catalyze the conversion of 1 mole of AMP and 1 mole of ATP into 2 moles of ADP. Thus the conversion of AMP to ADP will result in the subsequent loss of ATP. The decrease in ATP concentration can be monitored as light output using luciferase in a reaction that requires ATP to produce light. The PDE/AK assay uses luciferase, which catalyzes the production of light from ATP present in the reaction mix. The amount of emitted light is inversely proportional to the level of AMP present in the reaction. Test compounds are incubated with the phosphodiesterases and phosphodiesterase inhibitors will decrease the rate of cAMP hydrolysis and decrease the subsequent production of AMP. Thus phosphodiesterase inhibitors will decrease the conversion of ATP to ADP and result in the greatest emission of light.
Compounds may be screened for functional potency in in vitro biochemical assays for their ability to inhibit the activity of phosphodiesterase (PDE) enzymes. A coupled PDE/AK assay was utilized to measure the inhibitory activity of compounds on PDE isoforms. The catalytic domain of PDE4B was fused to an amino-terminus hex-histidine affinity tag and purified. PDE4B enzyme was incubated with compounds for 10 minutes. Cyclic AMP substrate, ATP and adenylate kinase were then added to the PDE enzyme mix and incubated for 45 minutes at room temperature. A commercial ATP detection assay, Perkin Elmer's easyLite ATP detection reagent, was then added to measure the relative amount of ATP present in the reaction. After 10 minute incubation, the luminescent signal was quantitated with either the Perkin Elmer Viewlux or Molecular Devices Acquest or Analyst. Roflumilast and Rolipram are the positive controls used in the assay.

Solubility Protocol = format: physicochemical; conditions: aqueous buffer, thermodynamic from solid; pH 7.4, 0.1 M sodium phosphate buffer
Protocol: About 5 mg of a compound was mixed with 500 μL of pH 7.4, 0.1 M sodium phosphate buffer. The mixture was adjusted to the original pH of 7.4 and then mixed overnight or longer via rotary mixing. The sample was checked for pH and then filtered through a 0.45 μm filter. If the pH drifted away, the sample was adjusted to its original pH and mixed for at least 15 minutes before filtration. The filtrate was analyzed using HPLC.

T1 sequence (Q07343 330-659 limits assumed, species assumed): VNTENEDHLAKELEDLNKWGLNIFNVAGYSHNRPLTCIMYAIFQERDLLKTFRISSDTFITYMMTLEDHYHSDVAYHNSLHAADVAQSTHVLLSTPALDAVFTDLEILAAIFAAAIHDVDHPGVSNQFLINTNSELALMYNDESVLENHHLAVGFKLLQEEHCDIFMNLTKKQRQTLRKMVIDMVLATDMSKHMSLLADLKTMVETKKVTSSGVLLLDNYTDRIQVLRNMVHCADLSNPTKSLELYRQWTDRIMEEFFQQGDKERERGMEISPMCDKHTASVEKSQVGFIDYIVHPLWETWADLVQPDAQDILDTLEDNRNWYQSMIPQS

| SMILES | IC50 (PDE4B) [µM] | solubility (Solubility Protocol) [mg/mL] |
| --- | --- | --- |
| COc1ccc2c(Nc3c(Cl)cncc3Cl)cc(=O)[nH]c2c1OCCCCO [Example 41, 4-(3,5-dichloropyridin-4-ylamino)-8-(4-hydroxybutoxy)-7-methoxyquinolin-2(1H)-one] | < 1 | ≥ 1 |
| COc1ccc2c(Nc3c(Cl)cncc3Cl)cc(=O)[nH]c2c1OCCCCC(=O)NCC(=O)O [Example 94, 2-(5-(4-(3,5-dichloropyridin-4-ylamino)-7-methoxy-2-oxo-1,2-dihydroquinolin-8-yloxy)pentanamido)acetic acid] | < 1 |  |
| COc1ccc2c(Nc3c(C)cncc3C)cc(=O)[nH]c2c1OCCCCCCn1ccnc1 [Example 80, 8-(6-(1H-imidazol-1-yl)hexyloxy)-4-(3,5-dimethylpyridin-4-ylamino)-7-methoxyquinolin-2(1H)-one] | < 1 | ≥ 1 |
| COc1ccc2c(Nc3c(C)cncc3C)cc(=O)[nH]c2c1OCCCCO [Example 82, 4-(3,5-dimethylpyridin-4-ylamino)-8-(4-hydroxybutoxy)-7-methoxyquinolin-2(1H)-one] | < 1 |  |
| COc1ccc2c(Nc3c(C)cncc3C)cc(=O)[nH]c2c1OCC(C)C [Example 12, 4-(3,5-Dimethylpyridin-4-ylamino)-8-isobutoxy-7-methoxyquinolin-2(1H)-one] |  | ≥ 1 |
| COc1ccc2c(Nc3c(C)cncc3C)cc(=O)[nH]c2c1OCCCCc1nn[nH]n1 [Example 86, 8-(4-(2H-tetrazol-5-yl)butoxy)-4-(3,5-dimethylpyridin-4-ylamino)-7-methoxyquinolin-2(1H)-one] | < 1 |  |
| COc1ccc2c(Nc3c(Cl)cncc3Cl)cc(=O)[nH]c2c1OCCCCCCc1nn[nH]n1 [Example 71, 8-(6-(2H-tetrazol-5-yl)hexyloxy)-4-(3,5-dichloropyridin-4-ylamino)-7-methoxyquinolin-2(1H)-one] | < 1 | ≥ 1 |
| COc1ccc2c(Nc3c(Cl)cncc3Cl)cc(=O)[nH]c2c1OCCCCCCNCCO [Example 29, 4-(3,5-Dichloropyridin-4-ylamino)-8-(6-(2-hydroxyethylamino)hexyloxy)-7-methoxyquinolin-2(1H)-one] | < 1 | ≥ 1 |
| COc1ccc2c(Nc3c(C)cncc3C)cc(=O)[nH]c2c1OCCCCCCN1CCN(C)CC1 [Example 34, 4-(3,5-Dimethylpyridin-4-ylamino)-7-methoxy-8-(6-(4-methylpiperazin-1-yl)hexyloxy)quinolin-2(1H)-one] | < 1 |  |
| COc1ccc2c(Nc3c(C)cncc3C)cc(=O)[nH]c2c1OCCCCCc1nn[nH]n1 [Example 87, 8-(5-(2H-tetrazol-5-yl)pentyloxy)-4-(3,5-dimethylpyridin-4-ylamino)-7-methoxyquinolin-2(1H)-one] | < 1 |  |
| COc1ccc2c(Nc3c(C)cncc3C)cc(=O)[nH]c2c1OCCCCCCO [Example 84, 4-(3,5-dimethylpyridin-4-ylamino)-8-(6-hydroxyhexyloxy)-7-methoxyquinolin-2(1H)-one] | < 1 |  |
| COc1ccc2c(Nc3c(Cl)cncc3Cl)cc(=O)[nH]c2c1OCCCCCCNC(=N)N [Example 63, 1-(6-(4-(3,5-dichloropyridin-4-ylamino)-7-methoxy-2-oxo-1,2-dihydroquinolin-8-yloxy)hexyl)guanidine] | < 1 |  |
| COc1ccc2c(Nc3c(C)cncc3C)cc(=O)[nH]c2c1OCCCCN(C)C [Example 44, 8-(4-(dimethylamino)butoxy)-4-(3,5-dimethylpyridin-4-ylamino)-7-methoxyquinolin-2(1H)-one] | < 1 |  |

Continued, values first:

| IC50 (PDE4B) [µM] | solubility (Solubility Protocol) [mg/mL] | SMILES |
| --- | --- | --- |
| < 1 | ≥ 1 | COc1ccc2c(Nc3c(Cl)cncc3Cl)cc(=O)[nH]c2c1OCCCCCCNCCCO [Example 32, 4-(3,5-Dichloropyridin-4-ylamino)-8-(6-(3-hydroxypropylamino)hexyloxy)-7-methoxyquinolin-2(1H)-one] |
| < 1 |  | COc1ccc2c(Nc3c(Cl)cncc3Cl)cc(=O)[nH]c2c1OCCCCC(=O)N[C@@H](Cc1c[nH]cn1)C(=O)O [Example 95, (S)-2-(5-(4-(3,5-dichloropyridin-4-ylamino)-7-methoxy-2-oxo-1,2-dihydroquinolin-8-yloxy)pentanamido)-3-(1H-imidazol-4-yl)propanoic acid] |
| < 1 | ≥ 1 | COc1ccc2c(Nc3c(Cl)cncc3Cl)cc(=O)[nH]c2c1OCCCCCCN1CCCNCC1 [Example 25, 8-(6-(1,4-Diazepan-1-yl)hexyloxy)-4-(3,5-dichloropyridin-4-ylamino)-7-methoxyquinolin-2(1H)-one] |
| < 1 |  | COc1ccc2c(Nc3c(Cl)cncc3Cl)cc(=O)[nH]c2c1OCCCOCCOCCO [Example 98, 4-(3,5-dichloropyridin-4-ylamino)-8-(3-(2-(2-hydroxyethoxy)ethoxy)propoxy)-7-methoxyquinolin-2(1H)-one] |
| < 1 | ≥ 1 | COc1ccc2c(Nc3c(Cl)cncc3Cl)cc(=O)[nH]c2c1OCCCc1nn[nH]n1 [Example 67, 8-(3-(2H-tetrazol-5-yl)propoxy)-4-(3,5-dichloropyridin-4-ylamino)-7-methoxyquinolin-2(1H)-one] |
| < 1 |  | COc1ccc2c(Nc3c(C)cncc3C)cc(=O)[nH]c2c1OCCCO [Example 81, 4-(3,5-dimethylpyridin-4-ylamino)-8-(3-hydroxypropoxy)-7-methoxyquinolin-2(1H)-one] |
| < 1 | ≥ 1 | COc1ccc2c(Nc3c(Cl)cncc3Cl)cc(=O)[nH]c2c1OCCCCCCN1CCCN(C)CC1 [Example 26, 4-(3,5-Dichloropyridin-4-ylamino)-7-methoxy-8-(6-(4-methyl-1,4-diazepan-1-yl)hexyloxy)quinolin-2(1H)-one] |
| < 1 |  | COc1ccc2c(Nc3c(C)cncc3C)cc(=O)[nH]c2c1OCCCCCO [Example 83, 4-(3,5-dimethylpyridin-4-ylamino)-8-(5-hydroxypentyloxy)-7-methoxyquinolin-2(1H)-one] |
| < 1 | ≥ 1 | COc1ccc2c(Nc3c(Cl)cncc3Cl)cc(=O)[nH]c2c1OCCCCCCN [Example 28, 8-(6-Aminohexyloxy)-4-(3,5-dichloropyridin-4-ylamino)-7-methoxyquinolin-2(1H)-one] |
| < 1 | ≥ 1 | COc1ccc2c(Nc3c(C)cncc3C)cc(=O)[nH]c2c1OCCCCCN(C)C [Example 45, 8-(5-(dimethylamino)pentyloxy)-4-(3,5-dimethylpyridin-4-ylamino)-7-methoxyquinolin-2(1H)-one] |
| < 1 |  | COc1ccc2c(Nc3c(Cl)cncc3Cl)cc(=O)[nH]c2c1OCCCCCCN(C)CCN(C)C [Example 24, 4-(3,5-dichloropyridin-4-ylamino)-8-(6-((2-(dimethylamino)ethyl)(methyl)amino)hexyloxy)-7-methoxyquinolin-2(1H)-one] |
| < 1 |  | CCN1CCN(CCCCCCOc2c(OC)ccc3c(Nc4c(Cl)cncc4Cl)cc(=O)[nH]c23)CC1 [Example 23, 4-(3,5-dichloropyridin-4-ylamino)-8-(6-(4-ethylpiperazin-1-yl)hexyloxy)-7-methoxyquinolin-2(1H)-one] |
| < 1 |  | COc1ccc2c(Nc3c(C)cncc3C)cc(=O)[nH]c2c1OCCCc1nn[nH]n1 [Example 85, 8-(3-(2H-tetrazol-5-yl)propoxy)-4-(3,5-dimethylpyridin-4-ylamino)-7-methoxyquinolin-2(1H)-one] |
| < 1 |  | COc1ccc2c(Nc3c(C)cncc3C)cc(=O)[nH]c2c1OCCCCCCc1nn[nH]n1 [Example 88, 8-(6-(2H-tetrazol-5-yl)hexyloxy)-4-(3,5-dimethylpyridin-4-ylamino)-7-methoxyquinolin-2(1H)-one] |
| < 1 |  | COc1ccc2c(Nc3c(Cl)cncc3Cl)cc(=O)[nH]c2c1OCCCCCCN(CCO)CCO [Example 31, 8-(6-(Bis(2-hydroxyethyl)amino)hexyloxy)-4-(3,5-dichloropyridin-4-ylamino)-7-methoxyquinolin-2(1H)-one] |
| < 1 |  | COCCOCCOCCOCCCOc1c(OC)ccc2c(Nc3c(Cl)cncc3Cl)cc(=O)[nH]c12 [Example 97, 8-(2,5,8,11-tetraoxatetradecan-14-yloxy)-4-(3,5-dichloropyridin-4-ylamino)-7-methoxyquinolin-2(1H)-one] |
| < 1 |  | COc1ccc2c(Nc3c(Cl)cncc3Cl)cc(=O)[nH]c2c1OCCCOCCOCCOCCO [Example 96, 4-(3,5-dichloropyridin-4-ylamino)-8-(3-(2-(2-(2-hydroxyethoxy)ethoxy)ethoxy)propoxy)-7-methoxyquinolin-2(1H)-one] |
